Test results: ChEMBL document CHEMBL1157412, “Cytotoxic alkaloids and antibiotic nordammarane triterpenoids from the marine-derived fungus Aspergillus sydowi” (J Nat Prod, 2008)
Converted amounts (≈) assume the structure as drawn.

How the values were obtained:
Micrococcus luteus = experiment: Antimicrobial activity against Micrococcus lysodeikticus after 24 hrs by disk diffusion method; format: functional
Escherichia coli = experiment: Antimicrobial activity against Escherichia coli after 24 hrs by disk diffusion method; format: functional
Bacillus subtilis = experiment: Antimicrobial activity against Bacillus subtilis after 24 hrs by disk diffusion method; format: functional
A549 = experiment: Cytotoxicity against human A549 cells after 72 hrs by MTT assay; format: functional, cell-based; settings: A549, 72 h
HL-60 = experiment: Cytotoxicity against human HL60 cells after 72 hrs by MTT assay; format: functional, cell-based; settings: HL-60, 72 h

SMILES	MIC (Micrococcus luteus)	MIC (Escherichia coli)	MIC (Bacillus subtilis)	IC50 (A549)	IC50 (HL-60)
CC(=O)O[C@H]1C[C@@]2(C)[C@@H](CC[C@H]3[C@@]4(C)C=CC(=O)[C@@H](C)[C@@H]4[C@H](OC(C)=O)C(=O)[C@@]32C)/C1=C(\CCC=C(C)C)C(=O)O [HELVOLIC ACID]	11 µM (≈ 6.25 µg/mL)	87.9 µM (≈ 50 µg/mL)	22 µM (≈ 12.5 µg/mL)		
C/C=C\[C@H](O)[C@H](O)C1=C(C)C(=O)[C@]2(O1)C(=O)N[C@@](OC)(C(=O)c1ccccc1)[C@@H]2O [14-NORPSEUROTIN A]	7.49 µM (≈ 3.13 µg/mL)	3.74 µM (≈ 1.56 µg/mL)	15 µM (≈ 6.25 µg/mL)		
CC(C)=CCc1cccc2c(C[C@H]3C(=O)N[C@@H](C)C(=O)N3O)c[nH]c12				7.31 µM	
COc1ccc2c(C[C@@H]3NC(=O)[C@@H]4CCCN4C3=O)c(C(=O)C=C(C)C)[nH]c2c1 [18-OXOTRYPROSTATIN A]				1.28 µM	
CC(=O)O[C@H]1C[C@@]2(C)[C@@H](CC[C@H]3[C@@]4(C)C=CC(=O)[C@@H](C)[C@@H]4[C@H](OC(C)=O)C(=O)[C@@]32C)/C1=C(\CCCC(C)(C)O)C(=O)O	10.7 µM (≈ 6.25 µg/mL)	10.7 µM (≈ 6.25 µg/mL)	5.33 µM (≈ 3.13 µg/mL)		
COc1ccc2c(c1)NC(=O)[C@@]21C=C2C(=O)N3CCC[C@H]3C(=O)N2[C@H]1C=C(C)C [SPIROTRYPROSTATIN B]				8.29 µM	9.71 µM
CC/C=C\[C@H](O)[C@H](O)C1=C(C)C(=O)[C@]2(O1)C(=O)N[C@@](OC)(C(=O)c1ccccc1)[C@@H]2O [PSEUROTIN A]	7.42 µM (≈ 3.2 µg/mL)	14.5 µM (≈ 6.25 µg/mL)	14.5 µM (≈ 6.25 µg/mL)		
